Source: ChEMBL document CHEMBL1909046, “DrugMatrix in vitro pharmacology data”

Molecular target: T1, Alpha-1D adrenergic receptor (Homo sapiens, UniProt P25100); note: in other assays of this panel Not Active means under 50% inhibition at 10 µM
T1 sequence (P25100 whole entry): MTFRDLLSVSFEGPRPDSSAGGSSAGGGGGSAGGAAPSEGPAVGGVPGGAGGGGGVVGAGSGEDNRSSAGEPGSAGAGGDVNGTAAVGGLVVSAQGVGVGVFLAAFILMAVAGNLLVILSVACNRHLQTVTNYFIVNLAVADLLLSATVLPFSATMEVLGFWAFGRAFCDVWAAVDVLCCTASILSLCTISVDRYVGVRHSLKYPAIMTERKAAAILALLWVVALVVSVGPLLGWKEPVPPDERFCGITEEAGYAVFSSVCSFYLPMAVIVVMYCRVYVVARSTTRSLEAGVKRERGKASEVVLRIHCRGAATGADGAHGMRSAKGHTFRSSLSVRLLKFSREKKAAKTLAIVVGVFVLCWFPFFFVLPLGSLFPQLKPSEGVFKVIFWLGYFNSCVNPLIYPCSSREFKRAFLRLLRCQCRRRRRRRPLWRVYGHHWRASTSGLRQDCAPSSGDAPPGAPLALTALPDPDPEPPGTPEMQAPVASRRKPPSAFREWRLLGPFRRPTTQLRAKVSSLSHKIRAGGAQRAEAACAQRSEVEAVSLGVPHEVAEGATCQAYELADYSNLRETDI
Format: cell membranes, HEK293, Membrane
Settings: hek293
In the case of CC(=O)[C@]1(O)Cc2c(O)c3c(c(O)c2[C@@H](O[C@H]2C[C@H](N)[C@H](O)[C@H](C)O2)C1)C(=O)c1ccccc1C3=O [IDARUBICIN], the IC50 is reported as “Not Active”. For Oc1ccccc1 [PHENOL], the IC50 was “Not Active”. For O=C(Nc1ccc(Cl)c(Cl)c1)c1cc(Cl)cc(Cl)c1O [3,3',4',5-TETRACHLOROSALICYLANILIDE], the IC50 was “Not Active”. For CC(=O)Nc1ccc2c(c1)Cc1ccccc1-2 [2-ACETYLAMINOFLUORENE], the IC50 was “Not Active”. For C[N+](C)(C)CCOC(N)=O.[Cl-] [CARBACHOL], the IC50 was “Not Active”. In the case of Oc1ncnc2[nH]ncc12 [ALLOPURINOL], the IC50 is reported as “Not Active”.

Molecular target: Beta-2 adrenergic receptor (Homo sapiens, UniProt P07550)
Sequence (P07550 whole entry): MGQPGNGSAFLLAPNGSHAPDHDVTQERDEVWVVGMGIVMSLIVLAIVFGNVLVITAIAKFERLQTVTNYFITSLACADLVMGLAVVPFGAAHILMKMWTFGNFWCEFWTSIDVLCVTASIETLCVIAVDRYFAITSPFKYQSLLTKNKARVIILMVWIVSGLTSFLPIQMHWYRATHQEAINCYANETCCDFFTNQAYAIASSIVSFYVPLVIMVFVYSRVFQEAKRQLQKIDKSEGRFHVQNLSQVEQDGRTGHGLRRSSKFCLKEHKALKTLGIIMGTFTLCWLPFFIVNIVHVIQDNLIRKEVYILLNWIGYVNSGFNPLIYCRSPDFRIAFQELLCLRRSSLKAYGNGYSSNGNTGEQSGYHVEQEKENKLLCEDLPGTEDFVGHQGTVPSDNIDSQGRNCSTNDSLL
Test: DRUGMATRIX: Adrenergic beta2 radioligand binding (ligand: [3H] CGP-12177)
Format: cell membranes, CHO, Membrane
Settings: cho; Not Active = under 50% inhibition at 10 µM
With CC(=O)[C@]1(O)Cc2c(O)c3c(c(O)c2[C@@H](O[C@H]2C[C@H](N)[C@H](O)[C@H](C)O2)C1)C(=O)c1ccccc1C3=O [IDARUBICIN] the IC50 was “Not Active”. In the case of Oc1ccccc1 [PHENOL], the IC50 is reported as “Not Active”. With O=C(Nc1ccc(Cl)c(Cl)c1)c1cc(Cl)cc(Cl)c1O [3,3',4',5-TETRACHLOROSALICYLANILIDE] the IC50 was “Not Active”. For CC(=O)Nc1ccc2c(c1)Cc1ccccc1-2 [2-ACETYLAMINOFLUORENE], the IC50 was “Not Active”. With C[N+](C)(C)CCOC(N)=O.[Cl-] [CARBACHOL] the IC50 was “Not Active”. For Oc1ncnc2[nH]ncc12 [ALLOPURINOL], the IC50 was “Not Active”.

Molecular target: C-C chemokine receptor type 2 (Homo sapiens, UniProt P41597); note: in other assays of this panel Not Active means under 50% inhibition at 10 µM
Sequence (P41597 whole entry): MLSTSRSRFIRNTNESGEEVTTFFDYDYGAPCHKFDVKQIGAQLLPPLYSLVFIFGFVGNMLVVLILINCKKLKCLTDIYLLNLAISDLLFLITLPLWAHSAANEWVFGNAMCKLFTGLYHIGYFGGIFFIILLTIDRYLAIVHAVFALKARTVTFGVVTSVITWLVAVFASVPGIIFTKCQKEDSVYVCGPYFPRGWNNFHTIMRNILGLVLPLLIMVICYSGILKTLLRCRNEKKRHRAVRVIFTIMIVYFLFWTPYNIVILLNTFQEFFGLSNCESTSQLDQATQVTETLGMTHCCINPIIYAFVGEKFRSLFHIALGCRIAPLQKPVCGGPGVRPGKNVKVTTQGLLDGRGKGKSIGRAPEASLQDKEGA
Format: cell membranes, CHO-K1, Membrane
Settings: cho-k1
In the case of CC(=O)[C@]1(O)Cc2c(O)c3c(c(O)c2[C@@H](O[C@H]2C[C@H](N)[C@H](O)[C@H](C)O2)C1)C(=O)c1ccccc1C3=O [IDARUBICIN], the IC50 is reported as “Not Active”. With Oc1ccccc1 [PHENOL] the IC50 was “Not Active”. With O=C(Nc1ccc(Cl)c(Cl)c1)c1cc(Cl)cc(Cl)c1O [3,3',4',5-TETRACHLOROSALICYLANILIDE] the IC50 was “Not Active”. For CC(=O)Nc1ccc2c(c1)Cc1ccccc1-2 [2-ACETYLAMINOFLUORENE], the IC50 was “Not Active”. For C[N+](C)(C)CCOC(N)=O.[Cl-] [CARBACHOL], the IC50 was “Not Active”. In the case of Oc1ncnc2[nH]ncc12 [ALLOPURINOL], the IC50 is reported as “Not Active”.

Molecular target: D(3) dopamine receptor (Homo sapiens, UniProt P35462)
Sequence (P35462 whole entry): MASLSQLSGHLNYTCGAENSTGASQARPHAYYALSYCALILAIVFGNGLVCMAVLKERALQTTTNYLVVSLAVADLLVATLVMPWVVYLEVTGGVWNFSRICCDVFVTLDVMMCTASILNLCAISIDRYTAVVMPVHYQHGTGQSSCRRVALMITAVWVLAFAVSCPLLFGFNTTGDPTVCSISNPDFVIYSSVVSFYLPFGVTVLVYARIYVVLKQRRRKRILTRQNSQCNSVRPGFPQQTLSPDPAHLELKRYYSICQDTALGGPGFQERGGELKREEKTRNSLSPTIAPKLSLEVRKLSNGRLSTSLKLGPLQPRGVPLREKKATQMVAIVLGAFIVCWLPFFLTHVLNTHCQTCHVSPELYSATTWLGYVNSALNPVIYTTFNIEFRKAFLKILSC
Test: DRUGMATRIX: Dopamine D3 radioligand binding (ligand: [3H] Spiperone)
Format: cell membranes, CHO, Membrane
Settings: cho
With CC(=O)[C@]1(O)Cc2c(O)c3c(c(O)c2[C@@H](O[C@H]2C[C@H](N)[C@H](O)[C@H](C)O2)C1)C(=O)c1ccccc1C3=O [IDARUBICIN] the IC50 was “Not Active”. With Oc1ccccc1 [PHENOL] the IC50 was “Not Active”. With O=C(Nc1ccc(Cl)c(Cl)c1)c1cc(Cl)cc(Cl)c1O [3,3',4',5-TETRACHLOROSALICYLANILIDE] the IC50 was “Not Active”. With CC(=O)Nc1ccc2c(c1)Cc1ccccc1-2 [2-ACETYLAMINOFLUORENE] the IC50 was “Not Active”. With C[N+](C)(C)CCOC(N)=O.[Cl-] [CARBACHOL] the IC50 was “Not Active”. For Oc1ncnc2[nH]ncc12 [ALLOPURINOL], the IC50 was “Not Active”.

Molecular target: Platelet-activating factor receptor (Homo sapiens, UniProt P25105); note: in other assays of this panel Not Active means under 50% inhibition at 10 µM
Sequence (P25105 whole entry): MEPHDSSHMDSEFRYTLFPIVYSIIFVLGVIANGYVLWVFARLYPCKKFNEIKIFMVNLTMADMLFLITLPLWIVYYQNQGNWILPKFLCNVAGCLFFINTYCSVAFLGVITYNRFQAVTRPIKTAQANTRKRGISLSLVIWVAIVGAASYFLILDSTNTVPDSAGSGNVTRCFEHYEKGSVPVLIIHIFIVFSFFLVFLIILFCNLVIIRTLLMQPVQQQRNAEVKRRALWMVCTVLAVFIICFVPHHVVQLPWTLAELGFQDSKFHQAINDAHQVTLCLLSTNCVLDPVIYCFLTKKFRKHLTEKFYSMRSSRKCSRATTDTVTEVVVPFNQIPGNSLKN
Format: tissue-based
Settings: not given
For CC(=O)[C@]1(O)Cc2c(O)c3c(c(O)c2[C@@H](O[C@H]2C[C@H](N)[C@H](O)[C@H](C)O2)C1)C(=O)c1ccccc1C3=O [IDARUBICIN], the IC50 was “Not Active”. In the case of Oc1ccccc1 [PHENOL], the IC50 is reported as “Not Active”. In the case of O=C(Nc1ccc(Cl)c(Cl)c1)c1cc(Cl)cc(Cl)c1O [3,3',4',5-TETRACHLOROSALICYLANILIDE], the IC50 is reported as “Not Active”. For CC(=O)Nc1ccc2c(c1)Cc1ccccc1-2 [2-ACETYLAMINOFLUORENE], the IC50 was “Not Active”. With C[N+](C)(C)CCOC(N)=O.[Cl-] [CARBACHOL] the IC50 was “Not Active”. In the case of Oc1ncnc2[nH]ncc12 [ALLOPURINOL], the IC50 is reported as “Not Active”.

System: not listed separately
Test: DRUGMATRIX: Purinergic P2X radioligand binding (ligand: [3H] alpha, beta-Methylene-ATP)
Format: cell membranes, Oryctolagus cuniculus, New Zealand albino, Urinary bladder, Membrane
Settings: Not Active = under 50% inhibition at 10 µM
In the case of CC(=O)[C@]1(O)Cc2c(O)c3c(c(O)c2[C@@H](O[C@H]2C[C@H](N)[C@H](O)[C@H](C)O2)C1)C(=O)c1ccccc1C3=O [IDARUBICIN], the IC50 is reported as “Not Active” and the Ki is reported as “Not Active”. In the case of Oc1ccccc1 [PHENOL], the IC50 is reported as “Not Active” and the Ki is reported as “Not Active”. In the case of O=C(Nc1ccc(Cl)c(Cl)c1)c1cc(Cl)cc(Cl)c1O [3,3',4',5-TETRACHLOROSALICYLANILIDE], the IC50 is reported as “Not Active” and the Ki is reported as “Not Active”. In the case of CC(=O)Nc1ccc2c(c1)Cc1ccccc1-2 [2-ACETYLAMINOFLUORENE], the IC50 is reported as “Not Active” and the Ki is reported as “Not Active”. With C[N+](C)(C)CCOC(N)=O.[Cl-] [CARBACHOL] the IC50 was “Not Active” and the Ki was “Not Active”. In the case of Oc1ncnc2[nH]ncc12 [ALLOPURINOL], the IC50 is reported as “Not Active” and the Ki is reported as “Not Active”.
